One experiment concerns the target MBP I329W mutant (Escherichia coli, UniProt P0AEX9, I355W). Nature of the experiment: Maltose fluorescence titration, peak wavelength of tryptophan fluorescence. The following applies: I329W mutant relative to wild-type protein. Format: binding.
Experiment [1] relates to NBD-labelled MBP (cysteine mutation at Ser337). Format: binding, Escherichia coli.

The results in this text go back to publication PMC6703856 (Biochemistry, 2019).

Read-outs that look alike come from different tables or passages of the source.

Consider `OC[C@H]1O[C@H](O[C@H]2[C@H](O)[C@@H](O)C(O)O[C@@H]2CO)[C@H](O)[C@@H](O)[C@@H]1O` (mixture of isomers) [maltose], for which the “increase in maltose binding affinity” value at MBP I329W mutant is 100 fold. The “weakening of maltose affinity by the NBD dye” value was found to be 24 fold in experiment [1] (monitored by NBD fluorescence intensity) and 5 fold in experiment [1] (monitored by peak wavelength of tryptophan fluorescence).
Regarding bovine serum albumin [BSA], in experiment [1] (100 g/L BSA, NBD fluorescence), the “increase in maltose Kd;app” value worked out at 16 fold.
